Legend:
Assay in all cases: relative viability (nuclei count vs DMSO), 5 days (fraction); higher = more cells survive
Pazopanib + Bortezomib = compound: Cc1ccc(Nc2nccc(N(C)c3ccc4c(C)n(C)nc4c3)n2)cc1S(N)(=O)=O [Pazopanib] + CC(C)C[C@H](NC(=O)[C@H](Cc1ccccc1)NC(=O)c1cnccn1)B(O)O [Bortezomib] (partner 0.002 µM)
Summary of the method: (§1)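 Five library-drug doses in √10 steps were combined with a fixed anchor-drug dose, or a single drug was given alone, by pin tool to lung cancer cell lines in 1536-well plates the day after seeding. Nuclei were stained and counted after 5 days. Relative viability is the nuclei count in treated wells over that in vehicle wells, taken as the median of duplicate plates.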

Pazopanib + Vorinostat = compound: Cc1ccc(Nc2nccc(N(C)c3ccc4c(C)n(C)nc4c3)n2)cc1S(N)(=O)=O [Pazopanib] + O=C(CCCCCCC(=O)Nc1ccccc1)NO [Vorinostat] (partner 1 µM)
Summary of the method: as §1

Ponatinib + Pemetrexed = compound: Cc1ccc(C(=O)Nc2ccc(CN3CCN(C)CC3)c(C(F)(F)F)c2)cc1C#Cc1cnc2cccnn12 [Ponatinib] + Nc1nc2[nH]cc(CCc3ccc(C(=O)N[C@@H](CCC(=O)O)C(=O)O)cc3)c2c(=O)[nH]1 [Pemetrexed] (partner 0.2 µM)
Summary of the method: as §1

Pazopanib + Dasatinib = compound: Cc1ccc(Nc2nccc(N(C)c3ccc4c(C)n(C)nc4c3)n2)cc1S(N)(=O)=O [Pazopanib] + Cc1nc(Nc2ncc(C(=O)Nc3c(C)cccc3Cl)s2)cc(N2CCN(CCO)CC2)n1 [Dasatinib] (partner 0.075 µM)
Summary of the method: as §1

| Cell Line | relative viability (Pazopanib + Bortezomib; first compound 0.01 µM) | relative viability (Pazopanib + Bortezomib; first compound 0.03162 µM) | relative viability (Pazopanib + Bortezomib; first compound 0.1 µM) | relative viability (Pazopanib + Bortezomib; first compound 0.3162 µM) | relative viability (Pazopanib + Bortezomib; first compound 1 µM) | relative viability (Pazopanib + Vorinostat; first compound 0.01 µM) | relative viability (Pazopanib + Vorinostat; first compound 0.03162 µM) | relative viability (Pazopanib + Vorinostat; first compound 0.1 µM) | relative viability (Pazopanib + Vorinostat; first compound 0.3162 µM) | relative viability (Pazopanib + Vorinostat; first compound 1 µM) | relative viability (Ponatinib + Pemetrexed; first compound 0.002 µM) | relative viability (Ponatinib + Pemetrexed; first compound 0.006325 µM) | relative viability (Ponatinib + Pemetrexed; first compound 0.06325 µM) | relative viability (Ponatinib + Pemetrexed; first compound 0.2 µM) | relative viability (Pazopanib + Dasatinib; first compound 0.01 µM) | relative viability (Pazopanib + Dasatinib; first compound 0.03162 µM) | relative viability (Pazopanib + Dasatinib; first compound 0.1 µM) | relative viability (Pazopanib + Dasatinib; first compound 0.3162 µM) | relative viability (Pazopanib + Dasatinib; first compound 1 µM) |
| --- | --- | --- | --- | --- | --- | --- | --- | --- | --- | --- | --- | --- | --- | --- | --- | --- | --- | --- | --- |
| NCI-H661 | 0.823 | 0.853 | 0.786 | 0.631 | 0.873 | 0.773 | 0.808 | 0.875 | 0.759 | 0.802 | 0.965 | 0.968 | 0.932 | 0.87 | 0.908 | 0.894 | 0.815 | 0.931 | 1.15 |
| RERF-LC-KJ | 1.03 | 1.05 | 1.05 | 1.16 | 1.04 | 0.63 | 0.79 | 0.622 | 0.601 | 0.596 | 0.468 | 0.492 | 0.486 | 0.453 | 0.836 | 0.773 | 0.915 | 0.722 | 0.765 |
